In US12564596B2, “Agents and methods for modulating pathogen activity” (Griffith University, priority 2018, dated 2026):
pKd: −log10 of the molar value.

Key:
[1] = biological target: T1, N. gonorrhoeae MS11 pilin interaction with human rI-domain (Homo sapiens, UniProt P11215); assay: SPR 1:1 competition assay, MS11 pilin binding to rI-domain
T1 construct: was performed with human rI-domain immobilized on a CM5 sensor chip surface; made in house
Method: To determine if drugs with high affinity interactions with the human rI-domain could inhibit the interaction with MS11 pilin or HIV, competition assay between primary T-cell derived WITO HIV and N. gonorrhoeae MS11 pilin and the drugs were performed as described Mubaiwa et al (2017, Sci Rep. 7(1):5693). Competition analysis SPR of N. gonorrhoeae MS11 pilin and human rI-domain interaction was performed with human rI-domain immobilized on a CM5 sensor chip surface (low immobilization—˜3500 RU compared to ˜14000 RU for initial screening and KD calculations). N. gonorrhoeae MS11 purified pilin, drug or drug and pilin were flowed at 100 nM over the I-domain and the response units of the interactions were recorded.

[2] = biological target: T2, human recombinant I-domain (rI-domain) of CD11b (Homo sapiens, UniProt P11215); assay: Surface plasmon resonance binding to human rI-domain (KD); conditions: SPR, single cycle kinetics, 25° C., PBS; read-out: KD
T2 construct: made in house
T2 sequence (P11215 150-328 limits assumed): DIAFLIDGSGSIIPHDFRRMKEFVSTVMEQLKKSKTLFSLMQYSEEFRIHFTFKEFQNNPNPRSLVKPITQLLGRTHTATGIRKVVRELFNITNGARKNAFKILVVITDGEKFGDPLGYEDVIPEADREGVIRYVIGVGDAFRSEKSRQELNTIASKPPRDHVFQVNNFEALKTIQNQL

[3] = test system: HIV strains NL4-3 and NLAD8 adherence to CHO-CR3 cells; assay: Fluorometric adherence assay, HIV to CHO cells; format: cell-based
Method: To test the ability of HIV to bind to CHO cells in a CR3 dependent fashion, and to test the ability of carbamazepine to block adherence of HIV to CHO-CR3 or CHO-neo cells, a fluorometric adherence assay was used, essentially as described by Jen et al (2013, supra). In this regard, CHO-neo or CHO-CR3 cells were seeded to a 96-well plate and allowed to grow to confluence. Fluorescently labelled HIV (10 ng of p24 HIV capsid protein equivalent of HIV in 100 μL of F12 culture media) were then used to challenge (2 h) CHO cells simultaneously with, or without, various concentrations of carbamazepine (as noted). Fluorescence (485/528 nm) intensity, corresponding to HIV cell adherence, was recorded using a Synergy HT Multi-mode Microplate Reader (BioTek Instruments, Winooski, VT USA). […] A Kruskal-Wallis k-sample analysis of variance was used to determine the statistical significance of the calculated mean of viral-cell adherence.
Having established the CR3-dependent binding of HIV to CHO cells, the inventors next examined the ability of carbamazepine to block the interaction of HIV strains NL4-3 and NLAD8 with the CR3 I-domain using fluorometric adherence assays. CR3-expressing (CHO-CR3) and non-expressing (CHO-neo) CHO cells, were seeded to microtiter plates, and HIV adherence was quantitated fluorometrically, as described by Jen et al. (2013, supra). […]

[4] = test system: N. gonorrhoeae strain MS11gfp adherence to CHO-CR3 cells; assay: Fluorometric adherence assay, gonococci to CHO cells; format: cell-based, Neisseria gonorrhoeae; conditions: 1 h post-challenge
Method: The ability of carbamazepine to block adherence of N. gonorrhoeae strain MS11gfp to CHO-neo or CHO-CR3 cells was evaluated using a fluorometric adherence assay. Assays were performed essentially as described by Jen et al (2013, PLoS Pathog. 9(5):e1003377). In this regard, CHO-neo or CHO-CR3 cells were seeded to a 96-well plate and allowed to grow to confluence. MS11gfp gonococci were then used to challenge (1 h) CHO cells simultaneously with, or without, various concentrations of carbamazepine (as noted). Fluorescence (485/528 nm) intensity, corresponding to bacterial adherence, was recorded using a Synergy HT Multi-mode Microplate Reader (BioTek Instruments, Winooski, VT USA). The assay was performed in triplicate on 3 separate occasions. A Kruskal-Wallis k-sample analysis of variance was used to determine the statistical significance of the calculated mean of bacterial adherence.
The ability of the compounds, or negative controls to block adherence of N. gonorrhoeae strain MS11gfp to PEX cells, CHO-CR3, or CHO-neo cells was evaluated using a fluorometric microtiter plate assay. Assays were performed essentially as described by Jen et al. (2013, Plos Pathog 9(5): e1003377). In this regard, GFP-expressing gonococci were used to challenge (1 h) PEX or CHO cells immediately following compound addition. Fluorescence (485/528 nm) intensity, corresponding to bacterial adherence, was recorded using a Synergy HT Multi-mode Microplate Reader (BioTek Instruments, Winooski, VT USA). Blank wells, devoid of PEX or CHO cells, also were inoculated with bacteria and served as a control for non-specific binding. The assay was performed in triplicate on 3 separate occasions. A Student's t-test was used to determine the statistical significance of the calculated mean of bacterial adherence.

[5] = test system: HIV strains NL4-3 and NLAD8 adherence to human PEX cells; assay: Fluorometric adherence assay, HIV to PEX cells; format: cell-based; conditions: for decrease of cell association to PEX cells: 100 μM; for reduction in cell adherence to PEX cells: lowest concentration, printed 'down to 100 μM'
Method: The ability of carbamazepine to block adherence of HIV to human PEX cells was evaluated using a fluorometric adherence assay, essentially as described by Jen et al. (2013, supra). In this regard, PEX cells were seeded to a 96-well plate and allowed to grow to confluence. Fluorescently labelled HIV (10 ng of p24 HIV capsid protein equivalent of HIV in 100 μL of F12 culture media) were then used to challenge (2 h) PEX cells simultaneously with, or without, various concentrations of carbamazepine (as noted). Fluorescence (485/528 nm) intensity, corresponding to HIV cell adherence, was recorded using a Synergy HT Multi-mode Microplate Reader (BioTek Instruments, Winooski, VT USA). The assay was performed in triplicate on 3 separate occasions. A Kruskal-Wallis k-sample analysis of variance was used to determine the statistical significance of the calculated mean of viral-cell adherence.

T1 sequence (P11215 150-328): as the sequence (P11215 150-328 limits assumed) above

NC(=O)N1c2ccccc2C=Cc2ccccc21 [carbamazepine, 5H-dibenzo[b,f]azepine-5-carboxamide]
inhibition at 0.1 µM ([1]; 1:1 competition, 100 nM): ~99%
% inhibition ([1]; 1:1 competition, 100 nM, 0.1 µM): 98.97%
Block MS11 pilin in SPR ([1]; direct competition SPR): Yes
Drug RU ([1]; drug alone flowed at 100 nM over immobilized rI-domain): 4.358 RU
Pilin + Drug RU ([1]; drug and pilin flowed at 100 nM, 1:1): 4.675 RU
pKd [2]: 8.67
HIV adherence to CHO-CR3 cells compared with CHO-neo cells ([3]; 1 μM, 2 h post-challenge): not significantly different than that recorded for CHO-neo cells
HIV adherence to CHO-CR3, but not CHO-neo, cells with increasing concentrations ([3]; 2 h): dose-dependent decrease
gonococcal adherence to CHO-CR3 cells compared with CHO-neo cells ([4]; 1 μM): not significantly different than that recorded for CHO-neo cells
gonococcal adherence to CHO-CR3, but not CHO-neo, cells with increasing concentrations [4]: dose-dependent decrease
decrease of cell association to PEX cells ([5]; NL4-3, 2 h): 88.53%±0.37
reduction in cell adherence to PEX cells ([5]; NL4-3): 59.65%±0.41
HIV adherence to PEX cells with increasing concentrations ([5]; NL4-3 and NLAD8, 2 h): dose-dependent decrease
decrease of cell association to PEX cells ([5]; NLAD8, 2 h): 87.98%±0.48
reduction in cell adherence to PEX cells ([5]; NLAD8): 59.65%±0.24
